Measurements from ChEMBL document CHEMBL1126514, “Thiopene systems. 15. Synthesis and antihypertensive activity of 7- (subsituted benzamido)-6-hydroxythieno[3,2,-b]pyrans as nwe potassium channel activitors” (1993).

Assays:
Type in all cases: functional
Rattus norvegicus [1] = assay: Maximal change in mean arterial blood pressure comparing MAP immediately prior to and up to 240 min after oral dose in rat
Rattus norvegicus [2] = assay: Maximal change in mean arterial blood pressure comparing MAP immediately prior to and up to 240 min after oral dose of 0.1 mgkg of compound in rat
Rattus norvegicus [3] = assay: Dose to produce 30% reduction in mean arterial pressure in rat when administered perorally; details: Artery, po
Rattus norvegicus [4] = assay: Maximal change in mean arterial blood pressure comparing MAP immediately prior to and up to 240 min after oral dose of 1 mgkg of compound in rat
Rattus norvegicus [5] = assay: Maximal change in mean arterial blood pressure comparing MAP immediately prior to and up to 240 min after oral dose of 0.3 mgkg of compound in rat

SMILES	Change MAP (Rattus norvegicus [1]) [%]	ED30 (Rattus norvegicus [3]) [mg/kg]	further results
CC1(C)Oc2ccsc2[C@@H](NC(=O)c2ccccc2)[C@@H]1O	35	–	–
CC(=O)c1cc2c(s1)[C@@H](NC(=O)c1ccco1)[C@H](O)C(C)(C)O2	38	–	–
CC(=O)c1cc2c(s1)[C@@H](NC(=O)c1ccc(F)cc1F)[C@H](O)C(C)(C)O2	59	–	Change MAP (Rattus norvegicus [2]): 16%
CC1(C)Oc2cc([N+](=O)[O-])sc2[C@@H](N2CCCCC2=O)[C@@H]1O	–	0.015	Change MAP (Rattus norvegicus [2]): 63%
CC(=O)c1cc2c(s1)[C@@H](NC(=O)c1ccc([N+](=O)[O-])cc1)[C@H](O)C(C)(C)O2	63	0.89	–
CC(=O)c1cc2c(s1)[C@@H](NC(=O)c1cccc([N+](=O)[O-])c1)[C@H](O)C(C)(C)O2	63	–	Change MAP (Rattus norvegicus [4]): 17%
CC(=O)c1cc2c(s1)[C@@H](NC(=O)c1ccc(C(F)(F)F)cc1)[C@H](O)C(C)(C)O2	26	–	–
CC(=O)c1cc2c(s1)[C@@H](NC(=O)c1cccnc1)[C@H](O)C(C)(C)O2	29	–	–
CC(=O)c1cc2c(s1)[C@@H](NC(=O)c1cccc(Cl)c1)[C@H](O)C(C)(C)O2	59	–	Change MAP (Rattus norvegicus [5]): 17%
COc1ccc(C(=O)N[C@@H]2c3sc(C(C)=O)cc3OC(C)(C)[C@H]2O)cc1	20	–	–
CC(=O)c1cc2c(s1)[C@@H](NC(=O)c1ccccc1F)[C@H](O)C(C)(C)O2	59	–	Change MAP (Rattus norvegicus [4]): -17%
CC(=O)c1cc2c(s1)[C@@H](NC(=O)c1ccc(C)cc1)[C@H](O)C(C)(C)O2	10	–	–
CC(=O)c1cc2c(s1)[C@@H](NC(=O)c1ccc(F)cc1)[C@H](O)C(C)(C)O2	75	0.059	–
CC1(C)Oc2cc([N+](=O)[O-])sc2[C@@H](N2Cc3ccccc3C2=O)[C@@H]1O	–	0.22	–
CC(=O)c1cc2c(s1)[C@@H](NC(=O)c1ccc(Cl)cc1)[C@H](O)C(C)(C)O2	60	0.11	–
CC1(C)Oc2cc([N+](=O)[O-])sc2[C@@H](NC(=O)c2ccccc2)[C@@H]1O	38	–	–
CC(=O)c1cc2c(s1)[C@@H](NC(=O)c1ccc(F)c(F)c1)[C@H](O)C(C)(C)O2	62	0.099	–
CC(=O)c1cc2c(s1)[C@@H](NC(=O)c1ccccc1)[C@H](O)C(C)(C)O2	55	0.2	–
CC1(C)Oc2cc([N+](=O)[O-])sc2[C@@H](NC(=O)c2ccc([N+](=O)[O-])cc2)[C@@H]1O	29	–	–
CC1(C)Oc2ccc(OC(F)(F)F)cc2[C@@H](N2Cc3ccccc3C2=O)[C@@H]1O [CELIKALIM]	–	0.5	–
CC1(C)Oc2ccc(C#N)cc2[C@@H](N2CCCC2=O)[C@@H]1O [CROMAKALIM]	47	0.19	–
